These results are taken from patent US20170368054A1, “Treatment of Glaucoma Using Laquinimod” (Teva Pharmaceutical Industries, Ltd., priority 2013, published 2017).

The subject of data set [1] is rat model of chronic ocular hypertension (OHT)/glaucoma. Put plainly: Intraocular pressure (IOP) measurement, Tono-Pen Vet tonometer, rat OHT model. The class given is in vivo, Brown Norway rats (Rattus norvegicus). The note with it: average of 5 weekly post-HSI measurements, groups matched for Mean ΔIOP. As for the experimental part: For each IOP measurement time-point following the 2nd HSI, the IOP elevation was calculated as the difference between the IOP in the left eye with OHT and that in the non-OHT right eye (ΔIOP). The ΔIOP for the 5 weekly post-HSI IOP measurements were averaged and constituted the Mean ΔIOP for each animal. […] Other animals were removed from the study. Baseline IOP measurements were taken before the initial dose administration. After application of topical anesthesia (0.5% Proparacaine HCl Ophthalmic Solution), IOP was measured on conscious rats on both eyes using a Tono-Pen Vet tonometer (Reichert, Inc.; Depew, N.Y.). Ten (10) IOP readings are recorded from each eye and averaged. IOP measurements were taken around the same time (e.g., between 10 a.m. and 2 p.m.) across measurement time-points to minimize the circadian variability of IOP. IOP measurements were taken once weekly starting one week after the second HSI until euthanasia (a total of 5 measurements). After application of topical anesthesia (0.5% Proparacaine HCl Ophthalmic Solution), IOP was measured on conscious rats on both eyes using a Tono-Pen Vet tonometer (Reichert, Inc.; Depew, N.Y.). For each time-point, ten (10) IOP readings were recorded from each eye and averaged. IOP measurements were taken around the same time (e.g., between 10 a.m. and 2 p.m.) across measurement time-points to minimize the circadian variability of IOP. The IOP measurements were evaluated as follows: For each time-point following the HSI, the IOP elevation was calculated as the difference between the level in the left eye with OHT and that in the normal right eye (ΔIOP). The ΔIOP of the 5-weekly post-HSI IOP measurements were averaged and constitute the Mean ΔIOP for each animal. For each group, ten (10) animals with a sustained IOP elevation in the OHT eye were selected from a larger pool and groups are matched for the Mean ΔIOP. Other animals were removed from the study and euthanized. […] For each time-point following the HSI, the IOP elevation was calculated as the difference between the level in the left eye with OHT and that in the normal right eye (ΔIOP). The ΔIOP of the 5-weekly post-HSI IOP measurements were averaged and constitute the Mean ΔIOP for each animal. For each group, ten (10) animals with a sustained IOP elevation in the OHT eye were selected from a larger pool and groups were matched for the Mean ΔIOP. Other animals were removed from the study and euthanized.

Another data set concerns Brown Norway rats. The note with it: rat, in vivo. As for the experimental part: Prior to any experimental procedure, clinical observations were performed daily, body weights were obtained, intraocular pressure (IOP) was measured and detailed ocular examinations were performed on both eyes.
Clinical observations were performed daily according to Table 6 below:
Animals were weighed weekly prior to initiation of dosing. The first day the rats are weighed was designated as Study Day 1, and the beginning of Study Week 1.
Animals selected for the study were examined prior to the initial administration of the test or the control articles to ensure that both eyes were free of abnormality, damage, and disease. Both eyes were examined, scored and recorded prior to the initial dose administration using a hand held slit-lamp and a direct ophthalmoscope or the surgical microscope according to the Classification System for Grading Ocular Lesions as described in Table 7, and the Ocular Posterior Segment Scoring Scale of Table 8. Posterior segment examination was performed after topical application of Tropicamide in the conscious state, or after the rats are anesthetized with isoflorane inhalation. Only rats showing no signs of eye irritation, ocular defects, or preexisting corneal injury were used in the study. […]
Both eyes were examined and scored at one week after the second HSI and on the day of euthanasia, for a total of two times. […]

Data set [2] deals with Th1 (T helper 1 cell) to Th2 (T helper 2 cell) shift. As to conditions: animal studies (Yang, 2004; Brück, 2011); cited from earlier work.
The next data set has as its system glaucoma human patients. Put plainly: Example 2: efficacy of laquinimod for treating patients afflicted with glaucoma. The class given is in vivo. As for the experimental part: Example 2: Assessment of Efficacy of laquinimod for Treating Patients Afflicted with Glaucoma Periodic (e.g., daily or twice daily) administration of laquinimod (oral or topical) is effective in treating glaucoma human patients. Periodic (e.g., daily or twice daily) administration of laquinimod (oral or topical) is effective to reduce a glaucoma-associated symptom in the subject. A laquinimod composition as described herein is administered systematically or locally to the eye of a subject suffering from glaucoma. The administration of the composition is effective to treat the subject suffering from glaucoma. The administration of the composition is also effective to reduce a glaucoma-associated symptom of glaucoma in the subject.

[3] abbreviates: human subject with glaucoma, systemic or local administration to the eye.

On to `CCN(C(=O)c1c(O)c2c(Cl)cccc2n(C)c1=O)c1ccccc1` [Laquinimod], for which the “Mean ΔIOP (OHT minus Non-OHT) (Mean±SD)” value in data set [1] (Group 1, topical 1% laquinimod) was 9.1±2.2 mmHg; in data set [1] (Group 3, topical 4% laquinimod), 9.3±2.7 mmHg; in data set [1] (Group 4, topical 0.25% laquinimod) it was 9.2±1.5 mmHg; in data set [1] (Group 5, oral 0.1% laquinimod), 9.1±2.9 mmHg. The “Weight gained between day of dosing and day of euthanasia, groups compared” value in the data set on Brown Norway rats is given as “did not differ”. Besides, in data set [2], the “Th1 to Th2 shift” value is listed as “causes a Th1”. The “Treating glaucoma / reducing a glaucoma-associated symptom” value in the data set on glaucoma human patients (human patients, periodic (e.g. daily or twice daily) oral or topical administration) is “effective”. In addition, the “Reduction of RGC damage and/or RGC loss, improvement of RGC viability” value in the data set on glaucoma human patients (setting [3]) is given as “effective to reduce RGC damage and/or RGC loss”. Further, the “Reduction of intraocular pressure” value with glaucoma human patients (setting [3]) is “effective to reduce intraocular pressure”.
